Data from patent publication US10752675B2, “Compounds for treating the remyelination blockade in diseases associated with the expression of HERV-W envelope protein” (GENEURO S.A., priority 2012, dated 2020).
Entries after “also recorded” stand apart in the source; their conditions may differ. Counter-ions that a name gives are not always drawn.

Key:
[1] = system: MSRV-Env induced EAE in C57BL/6 mice; assay: Rotarod test, Example 3.A (MSRV-Env induced EAE); type: in vivo; conditions: Example 3.A doses, end of study period
Description: 9 and 8 days before immunization. Transfer of mice, in their home cages, from the holding room to the experimental room. Mice are habituated to the experimental room for 15 min. During the training period, each mouse was placed on the rotarod at a constant speed (4 rpm) if one mouse was falling, she was back on rotarod, when mice were comfortable on the rotarod, mice were running during 120 sec. All mice were returned to their cage, the speed was increased to 13 rpm and mice were again put on the rotarod for 120 sec. All mice were returned to their cage, the speed was increased to 19 rpm and mice were again put on the rotarod for 120 sec. The experimental-room environment were kept constant between test sessions with respect to temperature, and light intensity.
1 day before each immunization, mice were transferred in their home cages, from the holding room to the experimental room. Mice were habituated to the experimental room for 15 min. Mice then received two trials at 10 increasing speed levels, ranging from 7 to 40 rpm. Individual delays before falling off the rotarod (for the two trials at each speed level) was recorded until 60 sec. Thus, training and performance on the Rotarod system were determined for each animal.
The ROTAROD test results are expressed as kinetics of the mean of individual scores for each group with SEM indicated by bars, for each test day and for each test speed within the discriminating range for neuromotor impairment in present conditions (16 to 29 rpm).
They are calculated for each individual mouse, for each test day and for each speed value, as the relative gain or loss of time on Rotarod (before falling), compared to the first test day at the same speed (D-7, before starting the disease induction in relevant groups). The value is calculated as “Time on Rotarod at dayX”−“Time at Day-7 for the same mouse at the same speed”. Figures illustrate the kinetics for the different groups on the whole study period, for representative discriminative speed values when validated to differentiate ill from healthy animals in our conditions (e.g., too high or too low speed values either made healthy ones fall immediately or ill ones capable to sustain a slow movement).
(§1) All groups of 6 (six) mice have been first injected s.c. in the neck on day 0 then in the dorsal flanks on day 7 and 14; with 200 μg of MOG/mouse+60 μg of MSRV-Env+IFA.
(§2) For Groups G to H, the treatments with GNbAc1, L-NAME, SMT and DMF alone or together with GNbAc1 with the doses indicated below, have been initiated on day 12 post immunization when the progression of EAE clinical symptoms was already observed. GNbAc1 humanized antibody was administered once, but L-Name or SMT was administered every 4 days until termination of the study on day 29. Regarding Groups E and H, attributed for the treatment with DMF, we have previously determined the volume of daily water consumption by each mouse and it has been determined that (in our condition), each mouse consumed around 3.5 ml drinking water per day. Thus, on the basis of this measurement, a dose of 1 mg DMF+0.08% Methocel per mouse were added to 3.5 ml drinking water daily.

[2] = system: MSRV-Env induced EAE in C57BL/6 mice; assay: EAE clinical score, Example 3.A (EAE induced with MOG and MSRV-Env); type: in vivo; conditions: treatment from day 12 to day 29: GNbAc1 200 μg once, L-NAME 600 μg IP and SMT 1 mg IP every 4 days, DMF 1 mg daily in drinking water
Source text: Pathogen free female C57BL/6 nice (6-8 weeks old) were purchased from the Charles River laboratories and maintained at the animal facilities for one week before immunization. One day before immunization, all mice have been weighed, and then evaluated on the Rotarod Test. Rotarod:
(§3) Animals were weighed and clinically scored 5 days per week according to the following criteria: 0=no signs; 1=tail paralysis or hyper-reflex of hind limb(s) or unilateral hind limb weakness; 2=bilateral hind limb or forelimb weakness; 3=plus unilateral paralysis or major deficit; 4=complete hind limb or forelimb paralysis; 5=plus partial paralysis or major deficit of opposite limbs; 6=moribund or dead. These were adapted from standard criteria, in order to reflect the more rapid induction of brain and cervical cord lesions with this model.
as §1, §2
350 ng of pertussis toxin (PTX) per animal was injected (i.p.) in all groups on the same day following each immunogen injection, and replicated 2 days later, as usual in EAE protocols in order to facilitate the migration lymphocytes through the blood-brain barrier.

rat OPCs [3] = assay: iNOS expression in cultured rat OPCs stimulated with recombinant Env (quantitative RT-PCR); type: cell-based; conditions: 2 h pre-incubation (IRAK1/4 inhibitor I 3200 nM; TRIF inhibitory peptide 50 μM; anti-TLR4 antibody 15 μg/ml), then solid recombinant Env 8 h, GAPDH reference
Description: Rat oligodendrocyte Precursor Cells (OPCs) were purified as previously described^22. OPCs were either kept in proliferation medium (Sato medium supplemented with 10 ng/ml recombinant human basic fibroblast growth factor and 10 ng/ml recombinant human platelet-derived growth factor-AA; R&D Systems, Wiesbaden-Nordenstadt, Germany), whereas differentiation was initiated by Sato medium supplemented with 0.5% fetal calf serum. Human fetal oligodendrocyte precursor cells (hOPC) and respective media were purchased from 3H Biomedical, Uppsala, Sweden. […] Endotoxin levels were <5 EU/mL as measured by the limulus amebocyte lysate (LAL) test. […] NO concentration measurements in OPC supernatants were performed using a colorimetric nitric oxide assay kit (Merck-Millipore/Calbiochem, Darmstadt, Germany) and the absorbance was determined at 540 nm using an Anthos plate reader 2001 (Anthos labtec instruments, Salzburg, Austria). […]
Transcription Polymerase Chain Reaction RNA purification from cultured cells was performed using the RNeasy procedure (Qiagen, Hilden, Germany). […] Quantitative determination of gene expression levels was performed on a 7900HT sequence detection system (Life Technologies/Applied Biosystems) using Power SybrGreen universal master mix (Life Technologies/Applied Biosystems). […]

rat OPCs [4] = assay: NO concentration in OPC supernatants (colorimetric nitric oxide assay); type: cell-based; conditions: Env stimulated OPCs; data not shown
Description: (§4) Rat oligodendrocyte Precursor Cells (OPCs) were purified as previously described^22. OPCs were either kept in proliferation medium (Sato medium supplemented with 10 ng/ml recombinant human basic fibroblast growth factor and 10 ng/ml recombinant human platelet-derived growth factor-AA; R&D Systems, Wiesbaden-Nordenstadt, Germany), whereas differentiation was initiated by Sato medium supplemented with 0.5% fetal calf serum. Human fetal oligodendrocyte precursor cells (hOPC) and respective media were purchased from 3H Biomedical, Uppsala, Sweden. Recombinant Env was produced and purified by PX-Therapeutics (Grenoble, France) according to QC specifications of GeNeuro (Geneva, Switzerland) that supplied the protein batches. Endotoxin levels were <5 EU/mL as measured by the limulus amebocyte lysate (LAL) test. […] NO concentration measurements in OPC supernatants were performed using a colorimetric nitric oxide assay kit (Merck-Millipore/Calbiochem, Darmstadt, Germany) and the absorbance was determined at 540 nm using an Anthos plate reader 2001 (Anthos labtec instruments, Salzburg, Austria). […]

rat OPCs [5] = assay: 3-nitrotyrosine (3-NT) positive rat OPCs after Env stimulation (immunostaining); type: cell-based; conditions: for Env dependent formation of 3-NT positive OPCs after pre-incubation: 100 μM for 30 min at 37° C. prior to Env stimulation
Description: Rat oligodendrocyte Precursor Cells (OPCs) were purified as previously described^22. OPCs were either kept in proliferation medium (Sato medium supplemented with 10 ng/ml recombinant human basic fibroblast growth factor and 10 ng/ml recombinant human platelet-derived growth factor-AA; R&D Systems, Wiesbaden-Nordenstadt, Germany), whereas differentiation was initiated by Sato medium supplemented with 0.5% fetal calf serum. Human fetal oligodendrocyte precursor cells (hOPC) and respective media were purchased from 3H Biomedical, Uppsala, Sweden. Recombinant Env was produced and purified by PX-Therapeutics (Grenoble, France) according to QC specifications of GeNeuro (Geneva, Switzerland) that supplied the protein batches. Endotoxin levels were <5 EU/mL as measured by the limulus amebocyte lysate (LAL) test. Env stimulation was carried out using three different approaches using i) recombinant full length Env protein diluted in differentiation medium at 10 ng/ml, 100 ng/ml and 1000 ng/ml, ii) recombinant Env protein coated on cell culture dishes at a surface concentration of 17.53 ng/cm^2 and iii) by seeding OPCs on transfected U343 glioblastoma cells overexpressing Env, respectively. Control stimulation experiments were conducted using the recombinant Env buffer preparation (20 mM histidine, 5% (w/v) sucrose, 0.01% (w/v) polysorbate 20, pH 6.0) at equal dilutions. NO concentration measurements in OPC supernatants were performed using a colorimetric nitric oxide assay kit (Merck-Millipore/Calbiochem, Darmstadt, Germany) and the absorbance was determined at 540 nm using an Anthos plate reader 2001 (Anthos labtec instruments, Salzburg, Austria). OPC morphology assessment was carried out using an anti-04 antibody Merck-Millipore/Chemicon, Darmstadt, Germany) taking into account cell diameter and the degree of process branching. […]

rat OPCs [6] = assay: Myelin protein (CNPase, MBP) expression of Env stimulated rat OPCs (immunostaining); type: cell-based; conditions: 100 μM in combination with surface bound recombinant Env for three days
Description: as §4

[7] = system: MSRV-Env induced EAE in C57BL/6 mice; assay: EAE clinical score, Example 3.C (GNbAC1 and Sodium Fumarate); type: in vivo; conditions: from day 12: GNbAC1 500 μg IP; Sodium Fumarate 10 mg daily in 3.5 ml drinking water; versus isotype control antibody
Source text: as §3

Compound: CSC(=N)N [SMT, S-methyl-isothiourea]
- Time on Rotarod at 23 rpm relative to Day -7 [1]: improved kinetics and outcome
- EAE clinical score kinetics and recovery [2]: irregular recovery; also recorded: lower recovery scores and kinetics than group B

Compound: COC(=O)/C=C/C(=O)OC [DMF, dimethyl fumarate]
- EAE clinical score kinetics and recovery [2]: equivalent recovery at the end of the study

Compound: O=C(Nc1nc2ccccc2n1CCN1CCOCC1)c1cccc([N+](=O)[O-])c1 [IRAK-1/4 inhibitor I, 1-(2-(4-Morpholinyl)ethyl)-2-(3-nitrobenzoylamino)benzimidazole]
- iNOS expression in presence of Env after pre-incubation with inhibitor (rat OPCs [3]): significantly decreased iNOS expression levels
- iNOS expression in presence of Env after pre-incubation with inhibitor (rat OPCs [3]; listed as IRAK1/4 inhibitor I): Reduction of iNOS expression

Compound: COC(=O)[C@@H](N)CCCNC(=N)N[N+](=O)[O-] [L-NAME, L-N^G-nitroarginine methyl ester]
- NO production after pre-incubation with L-NAME (rat OPCs [4]): significantly decreased
- Time on Rotarod at 26 rpm relative to Day -7 [1]: improved kinetics and outcome
- Time on Rotarod at 29 rpm relative to Day -7 [1]: improved kinetics and outcome
- EAE clinical score kinetics and recovery [2]: irregular recovery
- EAE clinical score kinetics and recovery ([2]; listed as L-Name): lower recovery scores and kinetics than group B
- Env dependent formation of 3-NT positive OPCs after pre-incubation (rat OPCs [5]): significantly decreased; also recorded: reduced to control levels
- MBP expression in Env stimulated OPCs (rescue of differentiation block) (rat OPCs [6]): rescue MBP expression; also recorded: abolishment of the Env-mediated OPC differentiation block

Compound: COC(=O)[C@H](N)CCCNC(=N)N[N+](=O)[O-] [D-NAME, D-N^G-nitroarginine methyl ester]
- Env dependent formation of 3-NT positive OPCs after pre-incubation (rat OPCs [5]): not affected; also recorded: could not abolish the Env dependent 3-NT induction
- MBP expression in Env stimulated OPCs (rescue of differentiation block) (rat OPCs [6]): not and not able to rescue myelin expression

Compound: CC(=O)NC(C(=O)O)C(C)(C)SN=O (racemic) [SNAP, S-Nitroso-N-acetyl-DL-penicillamine]
- 3-NT positive OPCs, NO donor positive control (rat OPCs [5]; SNAP 100 ng/ml): nitrotyrosinylation of almost all OPCs

Compound: O=C([O-])/C=C/C(=O)[O-].[Na+].[Na+] [Sodium Fumarate, reference compound]
- EAE clinical score kinetics and endpoint [7]: did not reveal any significant clinical improvement; also recorded: bad outcome at the end of the study; also recorded: no effect
